For the experiment, the system named is CD8F1 mice, subcutaneous mammary adenocarcinoma, T/C%. The experiment in a line: NCI In Vivo Anticancer Drug Screen. Data for tumor model Mammary Adenocarcinoma CD8F1 (subcutaneous) in CD8F1. Particulars: higher = larger tumour. In a few lines:
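Ratio of treated to vehicle-control outcome, based on either survival or tumor size, in mice bearing transplantable tumors given the test compound.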

Where [1] appears, read: endpoint: median tumor weight (est.), dose: 50.0 mg/kg/injection, schedule: Q07DX005 (ip), vehicle: water.
Where [2] appears, read: endpoint: median tumor weight (est.), dose: 100.0 mg/kg/injection, schedule: Q07DX005 (ip), vehicle: water.
Setting [3] is: endpoint: median tumor weight change, dose: 250.0 mg/kg/injection, schedule: Q01DX001 (ip), vehicle: saline with Tween-80.
[4] abbreviates: endpoint: median tumor weight change, dose: 500.0 mg/kg/injection, schedule: Q01DX001 (ip), vehicle: saline with Tween-80.
The mark [5] stands for this setting: endpoint: median tumor weight change, dose: 1000.0 mg/kg/injection, schedule: Q01DX001 (ip), vehicle: saline with Tween-80.
[6] abbreviates: endpoint: median tumor weight (est.), dose: 12.5 mg/kg/injection, schedule: Q07DX005 (ip), vehicle: saline.
Where [7] appears, read: endpoint: median tumor weight (est.), dose: 25.0 mg/kg/injection, schedule: Q07DX005 (ip), vehicle: saline.
[8] abbreviates: endpoint: median tumor weight (est.), dose: 50.0 mg/kg/injection, schedule: Q07DX005 (ip), vehicle: saline.
Where [9] appears, read: endpoint: median tumor weight (est.), dose: 100.0 mg/kg/injection, schedule: Q07DX005 (ip), vehicle: saline.
[10] abbreviates: endpoint: median tumor weight change, dose: 125.0 mg/kg/injection, schedule: Q01DX001 (ip), vehicle: saline with Tween-80.

Where “and” joins values, the source holds several entries; their conditions need not be identical. Identical values can stand only once. Inconclusive results are not listed.

`NC(N)=NC(N)=Nc1ccc(-c2ccc(N=C(N)N=C(N)N)cc2)cc1`: the T/C reads like this: (endpoint: median tumor weight (est.), dose: 3.12 mg/kg/injection, schedule: Q07DX005 (ip), vehicle: saline with Tween-80) 108 % of control; (endpoint: median tumor weight (est.), dose: 6.25 mg/kg/injection, schedule: Q07DX005 (ip), vehicle: saline with Tween-80) 118 % of control; (endpoint: median tumor weight (est.), dose: 12.5 mg/kg/injection, schedule: Q07DX005 (ip), vehicle: saline with Tween-80) 156 % of control.
Take `COc1cc(C)c(C2NC(=O)c3ccccc3N2)cc1C` (stereo not drawn): the T/C (endpoint: median tumor weight change, dose: 125.0 mg/kg/injection, schedule: Q01DX001 (ip), vehicle: Klucel (hydroxypropylcellulose) (HPC)) is 69 % of control; the T/C (endpoint: median tumor weight change, dose: 250.0 mg/kg/injection, schedule: Q01DX001 (ip), vehicle: Klucel (hydroxypropylcellulose) (HPC)) is 76 % of control; the T/C (endpoint: median tumor weight change, dose: 500.0 mg/kg/injection, schedule: Q01DX001 (ip), vehicle: Klucel (hydroxypropylcellulose) (HPC)) is 91 % of control; the T/C (endpoint: median tumor weight change, dose: 1000.0 mg/kg/injection, schedule: Q01DX001 (ip), vehicle: Klucel (hydroxypropylcellulose) (HPC)) was 107 % of control; the T/C (endpoint: median tumor weight change, dose: 2000.0 mg/kg/injection, schedule: Q01DX001 (ip), vehicle: Klucel (hydroxypropylcellulose) (HPC)) was 84 % of control.
Turning to `C=CC(C)NC(=S)NNC(=S)NC` (stereo not drawn), the T/C was 155 % of control (endpoint: median tumor weight change, dose: 62.5 mg/kg/injection, schedule: Q01DX001 (ip), vehicle: saline + alcohol); 164 % of control (endpoint: median tumor weight change, dose: 125.0 mg/kg/injection, schedule: Q01DX001 (ip), vehicle: saline + alcohol); 119 % of control (endpoint: median tumor weight change, dose: 250.0 mg/kg/injection, schedule: Q01DX001 (ip), vehicle: saline + alcohol); 82 % of control (endpoint: median tumor weight change, dose: 500.0 mg/kg/injection, schedule: Q01DX001 (ip), vehicle: saline + alcohol).
As to `Brc1ccc(C[N+]23CN4CN(CN(C4)C2)C3)cc1`, the T/C by setting is: (endpoint: median tumor weight (est.), dose: 25.0 mg/kg/injection, schedule: Q07DX005 (ip), vehicle: saline with Tween-80) 90 % of control; (endpoint: median tumor weight (est.), dose: 50.0 mg/kg/injection, schedule: Q07DX005 (ip), vehicle: saline with Tween-80) 96 % of control; (endpoint: median tumor weight (est.), dose: 100.0 mg/kg/injection, schedule: Q07DX005 (ip), vehicle: saline with Tween-80) 180 % of control.
For the compound `N#CC(OC1OC(COC2OC(CO)C(O)C(O)C2O)C(O)C(O)C1O)c1ccccc1` (stereo not drawn), the T/C by setting is: under setting [1], 71 % of control; under setting [2], 88 % of control; (endpoint: median tumor weight (est.), dose: 200.0 mg/kg/injection, schedule: Q07DX005 (ip), vehicle: water) 112 % of control; (endpoint: median tumor weight (est.), dose: 400.0 mg/kg/injection, schedule: Q07DX005 (ip), vehicle: water) 114 % of control; (endpoint: median tumor weight (est.), dose: 800.0 mg/kg/injection, schedule: Q07DX005 (ip), vehicle: water) 82 % of control.
Take `CCCCn1cnc2c(=S)nc[nH]c21`: the T/C under setting [3] was 60 % of control, the T/C under setting [4] was 2 % of control and the T/C under setting [5] is 8 % of control.
Regarding `CNc1nc(N(C)C)nc(N(C)C)n1`, the T/C by setting is: (endpoint: median tumor weight (est.), dose: 3.12 mg/kg/injection, schedule: Q07DX005 (ip), vehicle: saline) 89 % of control; (endpoint: median tumor weight (est.), dose: 6.25 mg/kg/injection, schedule: Q07DX005 (ip), vehicle: saline) 111 % of control; under setting [6], 75 % of control; (endpoint: median tumor weight (est.), dose: 12.5 mg/kg/injection, schedule: Q07DX005 (ip), vehicle: water) 65 % of control; under setting [7], 108 % of control; (endpoint: median tumor weight (est.), dose: 25.0 mg/kg/injection, schedule: Q07DX005 (ip), vehicle: water) 94 % of control. In addition, the T/C was 63 % of control under setting [8]; 13 % of control under setting [1]; 33 % of control (endpoint: median tumor weight (est.), dose: 74.0 mg/kg/injection, schedule: Q07DX005 (ip), vehicle: other); 48 % of control under setting [9]; 28 % of control under setting [2]; 47 % of control (endpoint: median tumor weight (est.), dose: 148.0 mg/kg/injection, schedule: Q07DX005 (ip), vehicle: other). Under “endpoint: median tumor weight (est.), dose: 222.0 mg/kg/injection, schedule: Q07DX005 (ip), vehicle: other”, the T/C was 7 % of control.
With `CCn1cnc2c(=S)nc[nH]c21`, the T/C runs as follows: under setting [10], 66 % of control; under setting [3], 50 % of control; under setting [4], 64 % of control; under setting [5], 39 % of control.
`Nc1cc2c3c(cccc3c1)C(=O)N(CCN1CCCC1)C2=O`: under “endpoint: median tumor weight change, dose: 15.63 mg/kg/injection, schedule: Q01DX001 (ip), vehicle: saline with Tween-80”, the T/C is 114 % of control.
On to `C=C(C)[C@@H]1CCc2c(O)c(O)c(=O)cc(C)c2C1`, for which the T/C by setting is: (endpoint: median tumor weight change, dose: 31.0 mg/kg/injection, schedule: Q01DX001 (ip), vehicle: saline with Tween-80) 83 % of control; (endpoint: median tumor weight change, dose: 62.0 mg/kg/injection, schedule: Q01DX001 (ip), vehicle: saline with Tween-80) 57 % of control; under setting [10], 88 % of control; under setting [3], 57 % of control; under setting [4], 93 % of control.
For the compound `CS(=O)(=O)Nc1ccc(C(=O)CCN2CCCCCC2)cc1`, the T/C runs as follows: (endpoint: median tumor weight change, dose: 125.0 mg/kg/injection, schedule: Q01DX001 (ip), vehicle: suspension in saline) 157 % of control; (endpoint: median tumor weight change, dose: 250.0 mg/kg/injection, schedule: Q01DX001 (ip), vehicle: suspension in saline) 166 % of control; (endpoint: median tumor weight change, dose: 500.0 mg/kg/injection, schedule: Q01DX001 (ip), vehicle: suspension in saline) 92 % of control.
For the compound `OCC1OC(n2cnc3c2NC=NC[C@H]3O)CC1O` (stereo partly drawn), the T/C runs as follows: (endpoint: median tumor weight (est.), dose: 0.25 mg/kg/injection, schedule: Q07DX005 (ip), vehicle: water) 104 % of control; (endpoint: median tumor weight (est.), dose: 0.5 mg/kg/injection, schedule: Q07DX005 (ip), vehicle: water) 108 % of control; (endpoint: median tumor weight (est.), dose: 2.0 mg/kg/injection, schedule: Q07DX005 (ip), vehicle: water) 63 % of control; (endpoint: median tumor weight (est.), dose: 4.0 mg/kg/injection, schedule: Q07DX005 (ip), vehicle: water) 51 % of control; (endpoint: median tumor weight (est.), dose: 8.0 mg/kg/injection, schedule: Q07DX005 (ip), vehicle: water) 60 % of control.
For `O=C(Nc1ccc(N=C=S)cc1Cl)c1cc(Cl)cc(Cl)c1O`, the T/C was 79 % of control (endpoint: median tumor weight (est.), dose: 12.5 mg/kg/injection, schedule: Q07DX005 (ip), vehicle: Klucel (hydroxypropylcellulose) (HPC)); 118 % of control under setting [6]; 49 % of control (endpoint: median tumor weight (est.), dose: 25.0 mg/kg/injection, schedule: Q07DX005 (ip), vehicle: Klucel (hydroxypropylcellulose) (HPC)); 96 % of control under setting [7]; 26 % of control (endpoint: median tumor weight (est.), dose: 50.0 mg/kg/injection, schedule: Q07DX005 (ip), vehicle: Klucel (hydroxypropylcellulose) (HPC)); 111 % of control under setting [8]. The T/C under setting [9] is 78 % of control.
`Cc1c2ccccc2c(C)c2c1cc(C(=O)O)c1ccccc12`: the T/C (endpoint: median tumor weight change, dose: 50.0 mg/kg/injection, schedule: Q01DX001 (ip), vehicle: sodium bicarbonate) is 83 % of control; the T/C (endpoint: median tumor weight change, dose: 100.0 mg/kg/injection, schedule: Q01DX001 (ip), vehicle: sodium bicarbonate) is 82 % of control; the T/C (endpoint: median tumor weight change, dose: 200.0 mg/kg/injection, schedule: Q01DX001 (ip), vehicle: sodium bicarbonate) was 155 % of control; the T/C (endpoint: median tumor weight change, dose: 400.0 mg/kg/injection, schedule: Q01DX001 (ip), vehicle: sodium bicarbonate) is 153 % of control.
As to `CC(=O)N(C)c1ccc(Nc2cc(C)[nH]c3ccc4ncnc4c23)cc1`, for the setting “endpoint: median tumor weight change, dose: 125.0 mg/kg/injection, schedule: Q01DX001 (ip), vehicle: saline”, the T/C was 34 % of control and 46 % of control.
With `CC(=O)NNC(=O)c1ccccn1`, the T/C is, setting by setting: (endpoint: mean tumor weight, dose: 25.0 mg/kg/injection, schedule: Q01DX009 (ip), vehicle: saline) 28 % of control; (endpoint: mean tumor weight, dose: 50.0 mg/kg/injection, schedule: Q07DX004 (ip), vehicle: saline) 112 % of control; (endpoint: mean tumor weight, dose: 100.0 mg/kg/injection, schedule: Q01DX009 (ip), vehicle: saline) 32 % of control; (endpoint: mean tumor weight, dose: 100.0 mg/kg/injection, schedule: Q07DX004 (ip), vehicle: saline) 74 % of control; (endpoint: mean tumor weight, dose: 100.0 mg/kg/injection, schedule: Q07DX005 (ip), vehicle: saline) 99 % of control; (endpoint: mean tumor weight, dose: 200.0 mg/kg/injection, schedule: Q07DX004 (ip), vehicle: saline) 56 % of control. For the same compound, the T/C (endpoint: mean tumor weight, dose: 200.0 mg/kg/injection, schedule: Q07DX005 (ip), vehicle: saline) was 82 % of control.
